Like-named read-outs stand apart in the source and are kept apart here.
Experiments:
in vivo [1] = conditions: rat, po
Procedure: A test group consisting of 10-15 rats (male Wistar strain; weight: 180-220 g) was used in this test. Each rat was fasted for 20 hours, but water was allowed ad libitum. The compounds shown in Table 5 were administered orally. After a 20-hour interval during which the rats were not fed but were allowed water, each rat was administered under ether anesthesia with 0.5 ml per 100 g body weight of a 5% solution of pontamine sky blue 6BX in saline (pH 7.2--adjusted with 0.5 N HCl) by intravenous injection. 15 minutes after administration each rat was killed. The stomach was removed and maintained in a 1% formalin solution. After about 2 hours, the stomach was opened along the greater curvature and the length of lesions (dark blue areas against pale blue background) in the glandular portion was measured under a dissecting microscope (10×) provided with a square grid. The sum of the lengths (mm) of lesions was used as ulcer index.

[2] = tested on: carrageenin-induced edema on the hind paw of rats; assay: Anti-edema effect on carrageenin-induced edema on the hind paw of rats (Carrageenin Edema Method); format: in vivo, rat (male Wistar strain); conditions: rat, oral, 3 hours after carrageenin
Procedure: The anti-edema effect was determined according to the method of Yamazaki et al [Yamazaki, H., et al; Folia Pharmacologica Japonica, 63, 302 (1967)].
In this test, a group consisting of five rats (male Wistar strain: weight 100-120 g) was used for the test and control groups. The compounds shown in Table 2 were administered orally to the rats of the test group. After one hour, 0.1 ml of a 1% carrageenin solution (phlogistic agent) was further administered to each rat by subcutaneous injection in one hind paw. To each rat of the control group, 0.1 ml of a 1% carrageenin solution was also administered in a similar manner to that for test rats. 1, 3 and 5 hours after administration of the phlogistic agent, the swelling ratio was calculated by means of the following equation: […]
Test group [formula] in which b: swelling ratio
B: volume of a hind paw without administration of phlogistic agent
B': volume of a hind paw administered with phlogistic agent
Control group [formula] in which a: swelling ratio
A: volume of a hind paw without administration of phlogistic agent
A': volume of a hind paw administered with phlogistic agent
The anti-edema effect was expressed as the suppression ratio of the edema in comparison with the control group to which the test compound had not been administered. The suppression ratio of the edema was determined 3 hours after administration of the phlogistic agent and was calculated by means of the following equation: [formula] in which a and b are as hereinbefore defined.

[3] = tested on: pain threshold of inflamed and not inflamed paws of rats; assay: Analgesic activity in rats (Randall-Selitto Method); format: in vivo, rat (male Wister strain); conditions: Rattus norvegicus, po, read-out: Analgesic Coefficient; for change in vivo at 150 mg/kg: P.O. 150 mg/kg
Procedure: A group consisting of 6-7 rats (male Wister strain; weight: 100-120 g) was used for the test and control groups in this test. Each rat of both groups was treated with 0.1 ml of a 1% carrageenin solution as phlogistic agent by subcutaneous injection in one hind paw. 3 hours after the administration, pressure was applied to the treated paw of each rat by means of a pressing device (manufactured by Ugobasile S. A., Italy). The threshold of pain induced by press was measured with reference to the shriek and struggle according to the method of Randall and Selitto [Randall, L. O. and Selitto, J. J.; Arch, Int. Pharmocodyn., 111, 409 (1957)]. From each group 5 rats having a good response reaction, i.e. the pain threshold was not more than 70 g, were respectively selected. […] 1, 2 and 3 hours after administration, pressure was again applied to both the inflamed and not inflamed paws of the test rats and the pain threshold was measured. On the other hand, without the administration of the active compound, the pressure was applied to both the inflamed and not inflamed paws of the selected 5 rats of the control group and the pain threshold was measured. The inflamed paws of the test and control groups were compared with each other. Also the not inflamed paws of the both groups were compared with each other.
The analgesic coefficient was calculated by means of the following equation, and the larger analgesic coefficient the better analgesic activity. [formula] in which X: analgesic coefficient (%)
P1 : threshold (g) of the test rats administered with active compounds
P2 : threshold (g) of the control rats without administration of active compound

[4] = tested on: acetic acid-induced writhing reactions in mice; assay: Analgesic activity in mice (AcOH Writhing Method); format: in vivo, mouse (male dd-strain); conditions: mouse, oral; for ED50: read-out: Analgesic Effect (AcOH Writhing Method), ED50
Procedure: In this test, three groups, each consisting of 10 mice (male dd-strain; weight: 19-21 g) were used. The compounds shown in Table 3 were administered orally to the test mice. One hour after the administration, the mice were treated with 0.1 ml/10 g of 0.7% acetic acid solution in physiological saline by intraperitoneal injection according to the method of Koster et al [Koster, R., et al; Fed. Proc., 18, 412 (1959)]. Ten minutes after the treatment, the number of writhing reactions occurring in the mice was counted.

in vivo [5] = conditions: oral, observed one week, Litchfield and Wilcoxon
Procedure: In this test, five groups, each consisting of 5 mice (male dd strain; weight: 19-21 g) and 5 rats (male Wistar strain; weight: 100-120 g) were used. […] The LD50 was calculated according to the method of Litchfield and Wilcoxon [Journal of Pharmacol. and Exper. Therap.

[6] = read-out: Anti-edema Effect, Suppression Ratio
[7] = 1 h before acetic acid, read-out: Analgesic Effect (AcOH Writhing Method), Suppression Ratio
[8] = mouse, read-out: Acute Toxicity (P.O.), LD50, Mouse
[9] = rat, read-out: Acute Toxicity (P.O.), LD50, Rat

Row | SMILES | TD50 at 20 h (in vivo [1]) | inhibition in vivo at 150 mg/kg [2, 6] | change in vivo at 150 mg/kg ([3]; 1 h, inflamed paw, 1 hr.) | change in vivo at 150 mg/kg ([3]; 1 h, not inflamed paw, 1 hr.) | change in vivo at 150 mg/kg ([3]; 2 h, inflamed paw, 2 hr.) | change in vivo at 150 mg/kg ([3]; 2 h, not inflamed paw, 2 hr.) | change in vivo at 150 mg/kg ([3]; 3 h, inflamed paw, 3 hr.) | change in vivo at 150 mg/kg ([3]; 3 h, not inflamed paw, 3 hr.) | inhibition in vivo at 150 mg/kg [4, 7] | LD50 at 168 h (in vivo [5]; [8]) | LD50 at 168 h (in vivo [5]; [9]) | inhibition in vivo at 75 mg/kg [2, 6] | inhibition in vivo at 300 mg/kg [2, 6] | ED50 [2] | inhibition in vivo at 300 mg/kg [4, 7] | ED50 [4] | other results
1 | CC(C)Cc1ccc(C(C)C(=O)O)cc1 (stereo not shown) [Ibuprofen, reference compound] | 46 mg/kg | 45.3% | 20.9% | 0.5% | 28.8% | 5.5% | 23.3% | 4.2% | 57.2% |  |  |  |  |  |  |  | 
2 | CCCCC1C(=O)N(c2ccccc2)N(c2ccccc2)C1=O [Phenylbutazone, reference compound] | 76 mg/kg |  |  |  |  |  |  |  |  |  |  |  |  |  |  |  | inhibition in vivo at 100 mg/kg ([2]; 100 mg/kg (footnote *; printed in 75 mg/kg column), read-out: Anti-edema Effect, Suppression Ratio): 42.6%; inhibition in vivo at 200 mg/kg ([2]; 200 mg/kg (footnote **; printed in 150 mg/kg column), read-out: Anti-edema Effect, Suppression Ratio): 53.5%; change in vivo at 100 mg/kg ([3]; 1 h, P.O. 100 mg/kg (** on upper line only), not inflamed paw, 1 hr.): 3.8%; change in vivo at 100 mg/kg ([3]; 1 h, P.O. 100 mg/kg, inflamed paw, 1 hr.): 20.7%; change in vivo at 100 mg/kg ([3]; 2 h, P.O. 100 mg/kg (** on upper line only), not inflamed paw, 2 hr.): 5.4%; change in vivo at 100 mg/kg ([3]; 2 h, P.O. 100 mg/kg, inflamed paw, 2 hr.): 23.2%; change in vivo at 100 mg/kg ([3]; 3 h, P.O. 100 mg/kg (** on upper line only), not inflamed paw, 3 hr.): 2%; change in vivo at 100 mg/kg ([3]; 3 h, P.O. 100 mg/kg, inflamed paw, 3 hr.): 27.7%; inhibition in vivo at 100 mg/kg ([4]; 100 mg/kg (footnote *; printed in 75 mg/kg column), read-out: Analgesic Effect (AcOH Writhing Method), Suppression Ratio): 20.8%; inhibition in vivo at 200 mg/kg ([4]; 200 mg/kg (footnote **; printed in 150 mg/kg column), read-out: Analgesic Effect (AcOH Writhing Method), Suppression Ratio): 28.2%
3 | Cc1c(CC(=O)O)oc2ccccc12 [Test Compound 1, 3-methyl-2-benzo(b)furylacetic acid] |  | 41.2% | 13.8% | 0.4% | 5.9% | 1.7% | 4.2% | 0% | 42.9% | > 1100 mg/kg | > 300 mg/kg | 25.3% | 54.2% | 240 mg/kg | 70.9% | 170 mg/kg | inhibition in vivo at 75 mg/kg ([4]; 75 mg/kg, 1 h before acetic acid, read-out: Analgesic Effect (AcOH Writhing Method), Suppression Ratio): 21.7%
4 | Cc1c(CC(=O)O)oc2ccc(Cl)cc12 [Test Compound 2, 5-chloro-3-methyl-2-benzo(b)furylacetic acid] | 230 mg/kg | 63.3% | 25.1% | 0.5% | 17.8% | 1.3% | 16.3% | 2.4% | 35.9% | 800 mg/kg | 425 mg/kg | 45.7% | 74.2% | 980 mg/kg | 68.8% | 190 mg/kg | 
5 | COc1ccc2oc(CC(=O)O)c(C)c2c1 [Test Compound 3, 5-methoxy-3-methyl-2-benzo(b)furylacetic acid] | > 300 mg/kg | 60.8% | 24.1% | 1.9% | 5.2% | 0% | 0% | 0% | 20.8% | 1110 mg/kg | > 1000 mg/kg | 34.5% | 73.1% | 110 mg/kg | 53.6% | 280 mg/kg | 
6 | Cc1c(CC(=O)O)oc2ccc(C(C)(C)C)cc12 [Test Compound 6, 5-tert-butyl-3-methyl-2-benzo(b)furylacetic acid] |  | 39.9% | 19.5% | 6% | 17.8% | 0.8% | 14.4% | 1.3% | 23.7% | > 1000 mg/kg | > 300 mg/kg |  |  |  |  |  | 
7 | Cc1c(CC(=O)O)oc2ccc(-c3ccccc3)cc12 [Test Compound 7, 5-phenyl-3-methyl-2-benzo(b)furylacetic acid] |  | 63.9% | 37.2% | 8% | 23.3% | 2.4% | 11.3% | 4.7% | 20.9% | 500 to 1000 mg/kg | > 300 mg/kg | 52.7% | 73.3% | 70 mg/kg | 77.6% |  | 
8 | Cc1c(CC(=O)O)oc2ccc(Cc3ccccc3)cc12 [Test Compound 8, 5-benzyl-3-methyl-2-benzo(b)furylacetic acid] |  | 31.1% | 23.1% | 1.7% | 24.7% | 0.7% | 29.5% | 6.1% | 30.5% | 500 to 1000 mg/kg | > 300 mg/kg |  |  |  | 55.6% |  | 
9 | Cc1c(CC(=O)O)oc2ccc(C3CCCCC3)cc12 [Test Compound 9, 5-cyclohexyl-3-methyl-2-benzo(b)furylacetic acid] |  | 28% | 0% | 0% | 2% | 0% | 32% | 17.2% |  | > 1000 mg/kg | > 150 mg/kg |  |  |  |  |  | 

Source: patent US4172145A, “Benzo(b)furylacetic acid derivatives to reduce inflammation” (priority 1975, dated 1979)
